# Square brackets hold non-standard residues; d marks the D form. Peptide text beside a SMILES is read from it. * marks the point of attachment. dPhe(4-NHCONH2) = NC(=O)Nc1ccc(C[C@@H](N)C(=O)O)cc1; Dihydroorotyl(S) = O=C1C[C@@H](C(=O)*)NC(=O)N1; dPhe(4-Cl) = N[C@H](Cc1ccc(Cl)cc1)C(=O)O; Phe(4-NH2) = Nc1ccc(C[C@H](N)C(=O)O)cc1; d2Nal = N[C@H](Cc1ccc2ccccc2c1)C(=O)O; Lys(iPr) = CC(C)NCCCC[C@H](N)C(=O)O; d3Pal = N[C@H](Cc1cccnc1)C(=O)O
# Tests used:
# [1] = in vivo
# Description: Body weight was measured at screening and the end of study visit.
# luteinizing hormone (LH) = test: CS21: serum LH over time; type: in vivo, human
# Description: Finally, the study evaluated the pharmacokinetics of the degarelix dosing regimens investigated.
# The secondary efficacy endpoints were: the proportion of patients with testosterone surge during the first 2 weeks of treatment; the proportion of patients with testosterone level ≤0.5 ng/mL at day 3; the percentage change in PSA from baseline to day 28; the probability of testosterone ≤0.5 ng/mL from day 56 through day 364; the levels of serum testosterone, LH, FSH and PSA over time through the study; the time to PSA failure, defined as two consecutive increases of 50%, and at least 5 ng/mL as compared to nadir; degarelix concentration over the first month and trough levels at day 308 and 336; the frequency and size of testosterone increases at day 255 and/or 259 compared to the testosterone level at day 252; the quality of life on days 0, 28, 84, 168 and end of study visit; the frequency and intensity of hot flushes experienced (scored daily from study start until end of study visit. In addition, two further secondary endpoints were added: the probability of sufficient testosterone response from day 28 through day 364 (a patient was considered to have insufficient testosterone response if they had one testosterone value >1.0 ng/mL or two consecutive testosterone values >0.5 ng/mL at day 28 onwards); and the percentage change in PSA from baseline to Day 14.
# [2] = CS21: incidence rates of cardiovascular events per 1,000 person years (Poisson model), by risk-factor subgroup; settings: for Coronary artery disease, % of patients / Coronary artery disease, incidence rate / HLGT Cardiac arrhythmias, % of patients / HLGT Cardiac arrhythmias, incidence rate / HLGT Central nervous system vascular disorders, % of patients / HLGT Central nervous system vascular disorders, incidence rate / HLGT Coronary artery disorders, % of patients / HLGT Coronary artery disorders, incidence rate / HLGT Heart failures, % of patients / HLGT Heart failures, incidence rate / Heart failure, % of patients / Heart failure, incidence rate / MI, % of patients / MI, incidence rate / Stroke, % of patients / Stroke, incidence rate: in vivo
# From the text: The SCS summarizes both crude incidences (n/N) as well as incidence rates of adverse events (number of patients with at least one adverse event investigated per 1,000 person years) including exact 95% CI based on the Poisson model and presented per MedDRA Preferred term (and grouped by SOC) for all study-groups, including the CS21 trial (the trial comprising the controlled phase 3 study group) and for all sub-groups. Briefly, the Poisson model provides exact 1-α lower (LL) and upper (UL) confidence limits are LL=χ2x; α/2^2/(2T) and UL=χ2(x+1); 1-α/2^2/(2T), respectively, where T is the number of 1,000 person years and x=number of subjects at least once having reported the adverse event under investigation (see Gerlinger et al. (2003) Eur. J. Contracept. Reprod. Health Care 8:87-92).
# These P values were presented as *(0.01<P≤0.05), ** (0.001<P≤0.01), and *** (P≤0.001). Similarly, incidence rates were compared using P values associated with the Poison model-based UMPU test. Briefly, assuming xi˜Poisson(λiTi), where xi=the number of subjects with the event, Ti=total number of 1,000 person years in arm i and λi=incidence rate in arm i (i=1,2), then the P value=2 min ([…], P(S≤x1), 0.5), where S˜Binomial (x1+x2, T1/(T1+T2)) (see, e.g. Lehmann (1986) Testing Statistical Hypotheses, 2nd edition, Springer-Verlag, New York).
# In the SCS, cardiovascular events were more specifically investigated on more aggregated MedDRA levels, i.e. the incidence, and incidence rates of subject with AEs in the following High Level Group Terms were tabulated by study group and treatment:
# These subgroup analyses were not pre-planned as part of the SCS.
# testosterone = test: CS21 phase 3 study, degarelix vs leuprolide 7.5 mg: serum testosterone suppression; type: in vivo, human; settings: for Probability of sufficient testosterone response / Probability of testosterone ≤0.5 ng/mL from Day 28 through Day 364 / Probability of testosterone ≤0.5 ng/mL from Day 56 through Day 364: age <65; for patients with testosterone surge (increase ≥15% from baseline): first two weeks, pooled degarelix
# Description: In this example, an open-label, multi-center, randomized, parallel-group study was conducted to investigate the efficacy and safety of degarelix one month dosing regimens. […] These degarelix dosing regimens were compared to LUPRON DEPOT™ at 7.5 mg in patients with prostate cancer requiring androgen ablation therapy. […] Finally, the study evaluated the pharmacokinetics of the degarelix dosing regimens investigated. […] The primary efficacy endpoint was analyzed for both the ITT and PP analysis sets, with the ITT analysis set considered primary. The primary efficacy endpoint was analyzed using the Kaplan Meier method. For each of the three treatment groups, testosterone response rates with 95% confidence interval (CI) were calculated by log-log transformation of survivor function. […] All secondary efficacy endpoints were analyzed for both the ITT and PP analysis sets, unless otherwise stated. […] The percentage change in PSA from baseline to day 28 endpoint was analyzed by a Wilcoxon test. […] The secondary endpoints; probability of testosterone ≤0.5 ng/mL from Day 56 through Day 364, time to PSA failure and probability of sufficient testosterone response from Day 28 through Day 364 were analyzed by the Kaplan-Meier method.
# [3] = CS21: mortality by treatment group; type: in vivo, human
# From the text: The death of a patient enrolled in this study was not considered an event per se, but rather an outcome. Any event resulting in a fatal outcome was fully documented and reported, including death, which occurred within the four weeks after treatment end, and regardless of the causality relationship to the IMP.
# Mortality Subgroups with Statistically (Pre-Planned as Part of the ISS) Significant Findings
# [4] = degarelix 240@40/80@20, LUPRON DEPOT 7.5 mg
# [5] = degarelix 240/80 mg, leuprolide 7.5 mg
compound,measurement,setting,value
"CCNC(=O)[C@@H]1CCCN1C(=O)[C@H](CCCNC(=N)N)NC(=O)[C@H](CC(C)C)NC(=O)[C@@H](CC(C)C)NC(=O)[C@H](Cc1ccc(O)cc1)NC(=O)[C@H](CO)NC(=O)[C@H](Cc1c[nH]c2ccccc12)NC(=O)[C@H](Cc1c[nH]cn1)NC(=O)[C@@H]1CCC(=O)N1 [Leuprolide, leuprolide, reference compound]","markedly abnormal increases in weight of ≥7% from baseline, % of patients",[1],13%
same,median LH level,luteinizing hormone (LH); by day 56 until day 364,0.035 IU/L
same,median LH level,luteinizing hormone (LH); day 1,31.0 IU/L
same,increase in median LH from baseline,"luteinizing hormone (LH); day 1, leuprolide 7.5 mg",> 400%
same,"Coronary artery disease, % of patients",[2],(5%)
same,"Coronary artery disease, incidence rate",[2],"63.4 per 1,000 person years"
same,"HLGT Cardiac arrhythmias, % of patients",[2],(8%)
same,"HLGT Cardiac arrhythmias, incidence rate",[2],"100 per 1,000 person years"
same,"HLGT Central nervous system vascular disorders, % of patients",[2],(<1%)
same,"HLGT Central nervous system vascular disorders, incidence rate",[2],"5.63 per 1,000 person years"
same,"HLGT Coronary artery disorders, % of patients",[2],(5%)
same,"HLGT Coronary artery disorders, incidence rate",[2],"63.4 per 1,000 person years"
same,"HLGT Heart failures, % of patients",[2],(2%)
same,"HLGT Heart failures, incidence rate",[2],"28.4 per 1,000 person years"
same,"Heart failure, % of patients",[2],(2%)
same,"Heart failure, incidence rate",[2],"28.4 per 1,000 person years"
same,"MI, % of patients",[2],(2%)
same,"MI, incidence rate",[2],"22.6 per 1,000 person years"
same,"Stroke, % of patients",[2],(<1%)
same,"Stroke, incidence rate",[2],"5.63 per 1,000 person years"
same,Probability of sufficient testosterone response,testosterone; [4],92.1%
same,Probability of testosterone ≤0.5 ng/mL from Day 28 through Day 364,testosterone; [4],89.5%
same,Probability of testosterone ≤0.5 ng/mL from Day 56 through Day 364,testosterone; [4],89.5%
same,patients with testosterone suppression on day 3,testosterone,no patients
same,Kaplan-Meier probability of testosterone ≤0.5 ng/mL from day 28 to day 364,testosterone; [5],96.4%
same,observed cases analysis: proportion of patients with testosterone ≤0.5 ng/mL from day 28 to day 364,testosterone; [5],96.0%
same,patients with testosterone surge (increase ≥15% from baseline),testosterone; leuprolide 7.5 mg,80.1%
same,Crude Mortality,[3]; Age >=65-<75,(8%)
same,"Mortality per 1,000 PY, estimate",[3]; Age >=65-<75,"99.0 per 1,000 PY"
same,No. of Deaths,[3]; Age >=65-<75,6
same,Crude Mortality,[3]; PCA = Localized,(6%)
same,"Mortality per 1,000 PY, estimate",[3]; PCA = Localized,"70.3 per 1,000 PY"
same,No. of Deaths,[3]; PCA = Localized,4
"CC(=O)N[C@H](Cc1ccc2ccccc2c1)C(=O)N[C@H](Cc1ccc(Cl)cc1)C(=O)N[C@H](Cc1cccnc1)C(=O)N[C@@H](CO)C(=O)N[C@@H](Cc1ccc(NC(=O)[C@@H]2CC(=O)NC(=O)N2)cc1)C(=O)N[C@H](Cc1ccc(NC(N)=O)cc1)C(=O)N[C@@H](CC(C)C)C(=O)N[C@@H](CCCCNC(C)C)C(=O)N1CCC[C@H]1C(=O)N[C@H](C)C(N)=O [Degarelix, D-Alaninamide, N-acetyl-3-(2-naphthalenyl)-D-alanyl-4-chloro-D-phenylalanyl-3-(3-pyridinyl)-D-alanyl-L-seryl-4-[[[(4S)-hexahydro-2,6-dioxo-4-pyrimidinyl]carbonyl]amino]-L phenylalanyl-4-[(aminocarbonyl)amino]-D-phenylalanyl-L leucyl-N6-(1-methylethyl)-L-lysyl-L-prolyl] (Ac-[d2Nal][dPhe(4-Cl)][d3Pal]S[Phe(4-NH2)](Dihydroorotyl(S))[dPhe(4-NHCONH2)]L[Lys(iPr)]P[dA]-NH2)","markedly abnormal increases in weight of ≥7% from baseline, % of patients",[1],10%
same,decrease in median LH from baseline,luteinizing hormone (LH); day 1,approximately 88%
same,median LH level,luteinizing hormone (LH); day 1,< 0.7 IU/L
same,"Cardiac arrhythmias, relative risk degarelix vs Lupron",[2]; BMI 25-<30 kg/m2,0.566
same,"Cardiac disorders (SOC), relative risk degarelix vs Lupron",[2]; BMI 25-<30 kg/m2,0.765
same,"Coronary artery disorders, relative risk degarelix vs Lupron",[2]; BMI 25-<30 kg/m2,1.013
same,"Cardiac arrhythmias, relative risk degarelix vs Lupron",[2]; BMI <25 kg/m2,0.312
same,"Cardiac disorders (SOC), relative risk degarelix vs Lupron",[2]; BMI <25 kg/m2,0.242
same,"Coronary artery disorders, relative risk degarelix vs Lupron",[2]; BMI <25 kg/m2,0.000
same,"Coronary artery disorders, relative risk degarelix vs Lupron","[2]; BMI <25 kg/m2, listed as degarelix",0.0
same,"Cardiac arrhythmias, relative risk degarelix vs Lupron",[2]; BMI >=30 kg/m2,3.161
same,"Cardiac disorders (SOC), relative risk degarelix vs Lupron",[2]; BMI >=30 kg/m2,1.946
same,"Coronary artery disorders, relative risk degarelix vs Lupron",[2]; BMI >=30 kg/m2,1.217
same,"Cardiac arrhythmias, relative risk degarelix vs Lupron",[2]; Cholesterol <4 mmol/L,1.973
same,"Cardiac arrhythmias, relative risk degarelix vs Lupron",[2]; Cholesterol >=4 mmol/L,0.411
same,"Cardiac arrhythmias, relative risk degarelix vs Lupron","[2]; Cholesterol >=4 mmol/L, listed as degarelix",0.41
same,"Coronary artery disease, % of patients",[2],(3%)
same,"Coronary artery disease, incidence rate",[2],"34.2 per 1,000 person years"
same,"HLGT Cardiac arrhythmias, % of patients",[2],(5%)
same,"HLGT Cardiac arrhythmias, incidence rate",[2],"57.7 per 1,000 person years"
same,"HLGT Central nervous system vascular disorders, % of patients",[2],(<1%)
same,"HLGT Central nervous system vascular disorders, incidence rate",[2],"14.2 per 1,000 person years"
same,"HLGT Coronary artery disorders, % of patients",[2],(3%)
same,"HLGT Coronary artery disorders, incidence rate",[2],"34.2 per 1,000 person years"
same,"HLGT Heart failures, % of patients",[2],(<1%)
same,"HLGT Heart failures, incidence rate",[2],"14.1 per 1,000 person years"
same,"Heart failure, % of patients",[2],(1%)
same,"Heart failure, incidence rate",[2],"14.1 per 1,000 person years"
same,"MI, % of patients",[2],(<1%)
same,"MI, incidence rate",[2],"5.64 per 1,000 person years"
same,"Stroke, % of patients",[2],(<1%)
same,"Stroke, incidence rate",[2],"8.49 per 1,000 person years"
same,median testosterone level,"testosterone; after one year of treatment, 80 mg monthly",0.087 ng/mL
same,Probability of sufficient testosterone response,testosterone; degarelix 240/160@40,96.7%
same,Probability of testosterone ≤0.5 ng/mL from Day 28 through Day 364,testosterone; degarelix 240/160@40,96.7%
same,Probability of testosterone ≤0.5 ng/mL from Day 56 through Day 364,testosterone; degarelix 240/160@40,96.7%
same,Probability of sufficient testosterone response,testosterone; [4],97.4%
same,Probability of testosterone ≤0.5 ng/mL from Day 28 through Day 364,testosterone; [4],97.4%
same,Probability of testosterone ≤0.5 ng/mL from Day 56 through Day 364,testosterone; [4],97.4%
same,patients with testosterone suppression on day 3,testosterone,96%
same,Kaplan-Meier probability of testosterone ≤0.5 ng/mL from day 28 to day 364,testosterone; [5],97.2%
same,observed cases analysis: proportion of patients with testosterone ≤0.5 ng/mL from day 28 to day 364,testosterone; [5],97.0%
same,Kaplan-Meier probability of testosterone ≤0.5 ng/mL from day 28 to day 364,testosterone; degarelix 240/160 mg,98.3%
same,observed cases analysis: proportion of patients with testosterone ≤0.5 ng/mL from day 28 to day 364,testosterone; degarelix 240/160 mg,98.2%
same,patients with testosterone surge (increase ≥15% from baseline),testosterone; leuprolide 7.5 mg,0.2%
same,patients with sustained testosterone suppression,"testosterone; maintenance monthly 80 mg, at least one year",97%
same,Crude Mortality,[3]; Age >=65-<75,(2%)
same,"Mortality per 1,000 PY, estimate",[3]; Age >=65-<75,"20.2 per 1,000 PY"
same,No. of Deaths,[3]; Age >=65-<75,3
same,Crude Mortality,[3]; PCA = Localized,(0%)
same,"Mortality per 1,000 PY, estimate",[3]; PCA = Localized,"0 per 1,000 PY"
same,No. of Deaths,[3]; PCA = Localized,0
